Paper PMC4920105, “Identification and Development of 2,3-Dihydropyrrolo[1,2-a]quinazolin-5(1H)-one Inhibitors Targeting Bromodomains within the Switch/Sucrose Nonfermenting Complex” (Journal of Medicinal Chemistry, 2016)
Where “and” joins values, the source holds several entries; their conditions need not be identical. Equal entries are not always repeated. One block for each molecule: values may come before it.

Assays:
PB1(5) [1] = molecular target: T1, PB1(5) (Homo sapiens, UniProt Q86U86); test: DSF Tm shift assay, PB1(5) bromodomain; assay type: binding; settings: 10 μM inhibitor, average of three replicates
T1 construct: the fifth bromodomain of PB1 (PB1(5)); made in house
T1 sequence (Q86U86 653-774): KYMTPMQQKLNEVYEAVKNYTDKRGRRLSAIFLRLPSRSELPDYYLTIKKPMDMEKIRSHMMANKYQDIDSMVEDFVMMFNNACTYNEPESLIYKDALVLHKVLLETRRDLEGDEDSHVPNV

PB1(5) [2] = molecular target: T1, PB1(5); test: Isothermal calorimetry (ITC), PB1(5) bromodomain; assay type: binding; settings: for K × 10^6 (M^–1): 293.15 K
BRD4(1) = molecular target: T2, BRD4(1) (Homo sapiens, UniProt O60885); test: DSF Tm shift assay, BRD4(1); assay type: binding; settings: 10 μM, single measurement
T2 construct: representative bromodomains (PCAF, BRD4(1), CREBBP, TRIM33B) from other subfamilies using DSF; made in house
Protocol: (§1) Protein Expression and Purification.
(§2) Proteins were cloned, expressed, and purified as previously described.1 […]
(§3) Bromodomain DSF Tm assays were performed using a Mx3005p real-time PCR machine (Agilent) and low profile 96-well PCR plates (AB-0700, Life Technologies). Protein was buffered in 10 mM HEPES, pH 7.5, 500 mM NaCl and assayed at a concentration of 2 µM with 10 µM inhibitor concentration and 1:1000 SyproOrange (Invitrogen). Excitation and emission filters were set to 465 and 590 nm respectively. The temperature was raised by 3 °C per 1 min from 25–95 °C, and fluorescence readers were taken at each interval. Data analysis was carried out as described previously.2
(§4) AlphaScreen Displacement Assay.
(§5) AlphaScreen assays were based on a reported protocol, with minor variations.3 In place of a biotinylated peptide, a biotinylated ligand was used at 25 nM final concentration.
(§6) Isothermal Calorimetry Experiments.
(§7) Calorimetric experiments were performed on a VP-ITC micro-calorimeter (MicroCalTM, LLC Northampton, MA). Protein solutions were buffer exchanged by dialysis into buffer 20 mM Hepes pH 7.5, 150 mM NaCl, and 0.5 mM TCEP. All measurements were carried out at 293.15 K while stirring at 286 rpm. The micro syringe was loaded with protein solutions ranging from […]

CREBBP = molecular target: T3, CREBBP (Homo sapiens, UniProt Q92793); test: DSF Tm shift assay, CREBBP; assay type: binding; settings: 10 μM, single measurement
T3 construct: representative bromodomains (PCAF, BRD4(1), CREBBP, TRIM33B) from other subfamilies using DSF; made in house
T3 sequence (Q92793 1085-1192 limits assumed): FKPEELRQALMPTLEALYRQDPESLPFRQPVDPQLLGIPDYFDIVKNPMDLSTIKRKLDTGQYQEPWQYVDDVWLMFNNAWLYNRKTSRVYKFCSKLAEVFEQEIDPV
Protocol: as §1, §2, §3, §4, §5, §6, §7

PCAF = molecular target: T4, PCAF (Homo sapiens, UniProt Q92831); test: DSF Tm shift assay, PCAF; assay type: binding; settings: 10 μM, single measurement
T4 construct: representative bromodomains (PCAF, BRD4(1), CREBBP, TRIM33B) from other subfamilies using DSF; made in house
T4 sequence (Q92831 723-827 limits assumed): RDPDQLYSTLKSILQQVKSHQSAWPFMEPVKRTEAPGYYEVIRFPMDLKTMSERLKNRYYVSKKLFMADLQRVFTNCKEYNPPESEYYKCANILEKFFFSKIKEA
Protocol: as §1, §2, §3, §4, §5, §6, §7

TRIM33B = molecular target: T5, TRIM33B (Homo sapiens, UniProt Q9UPN9); test: DSF Tm shift assay, TRIM33B; assay type: binding; settings: 10 μM, single measurement
T5 construct: representative bromodomains (PCAF, BRD4(1), CREBBP, TRIM33B) from other subfamilies using DSF; made in house
T5 sequence (Q9UPN9 957-1063 isoform Q9UPN9-2 limits assumed): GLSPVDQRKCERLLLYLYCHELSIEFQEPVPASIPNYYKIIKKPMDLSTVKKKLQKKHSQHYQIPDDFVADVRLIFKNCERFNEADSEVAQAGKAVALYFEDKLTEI
Protocol: as §1, §2, §3, §4, §5, §6, §7

Solubility (qualitative) = assay type: physicochemical; settings: chlorinated derivatives
SMARCA2B = molecular target: T6, SMARCA2B (Homo sapiens, UniProt P51531); test: Isothermal calorimetry (ITC), SMARCA2B; assay type: binding
T6 construct: made in house
T6 sequence (P51531 1373-1493 isoform P51531-2 limits assumed): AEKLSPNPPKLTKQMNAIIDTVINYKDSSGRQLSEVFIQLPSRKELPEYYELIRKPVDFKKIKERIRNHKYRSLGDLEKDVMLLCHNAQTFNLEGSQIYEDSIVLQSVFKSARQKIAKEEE
Protocol: as §1, §2, §3, §4, §5, §6, §7
for the cell. All injections for PB1(5) were performed using an initial injection of 2 μl followed by 30 injections of 8 μl with a duration of 16 sec per injection and a spacing of 240 sec between injection. Injections for SMARCA2B and SMARCA4 were performed using an initial injection of 2 μl followed by 35 injections of 8 μl with a duration of 16 sec per injection and a spacing of 240 sec between injection.The data were analyzed with the MicroCal ORIGIN software package employing a single binding site model. The first data point was excluded from the analysis.
Thermodynamic parameters were calculated (ΔG = ΔH - TΔS = -RTlnKB where ΔG, ΔH and ΔS are the changes in free energy, enthalpy and entropy of binding, respectively).
Fluorescence Recovery After Photobleaching (FRAP)
FRAP studies were performed essentially as described. In brief, U2OS cells were transfected (Fugene HD; Roche) with mammalian over-expression constructs encoding GFP fused to the N-terminus of full length wild-type or mutant SMARCA2 (1). The imaging system consisted of a Zeiss LSM 710 laser-scanning and control system (Zeiss) coupled to an inverted Zeiss Axio Observer.Z1 microscope equipped with a high-numerical-aperture (N. A. 1.3) 40 x oil immersion objective (Zeiss). […] FRAP and GFP fluorescence imaging were both carried out with an argon-ion laser (488 nm) and with a PMT detector set to detect fluorescence between 500-550 nm. […] The image datasets and fluorescence recovery data were exported from ZEN 2009, the microscope control

SMARCA4 = SMARCA4 (Homo sapiens, UniProt P51532); test: Isothermal calorimetry (ITC), SMARCA4; assay type: binding
Chain of SMARCA4 (P51532 1453-1564 limits assumed): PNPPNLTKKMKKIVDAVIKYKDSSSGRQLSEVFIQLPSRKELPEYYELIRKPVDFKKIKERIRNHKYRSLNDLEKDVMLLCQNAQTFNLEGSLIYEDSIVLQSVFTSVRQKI

SMILES: Cc1cccc2c1c(=O)nc1n2CCC1 [Compound 16c]
ΔTm at 10 µM (PB1(5) [1]): 0 °C

SMILES: O=c1nc2n(c3cccc(F)c13)CCC2 [Compound 17c]
ΔTm at 10 µM (PB1(5) [1]): -0.1 ± 0.8 °C

SMILES: O=c1nc2n(c3cccc(Cl)c13)CCC2 [Compound 18c, 6-chloro-2,3-dihydropyrrolo[1,2-a]quinazolin-5(1H)-one]
ΔTm at 10 µM (PB1(5) [1]): 2.6 ± 0.3 °C

SMILES: O=c1nc2n(c3cccc(Br)c13)CCC2 [Compound 19c]
ΔTm at 10 µM (PB1(5) [1]): 3.1 ± 0.3 °C

SMILES: COc1cccc2c1c(=O)nc1n2CCC1 [Compound 20c]
ΔTm at 10 µM (PB1(5) [1]): -0.6 ± 0.5 °C

SMILES: O=c1nc2n(c3cccc(O)c13)CCC2 [Compound 21c]
ΔTm at 10 µM (PB1(5) [1]): -0.1 ± 0.4 °C

Now from value to molecule:

TΔS (PB1(5) [2]): 3.018 kcal/mol and 3.0 kcal/mol
ΔG (PB1(5) [2]): -9.195 kcal/mol
K × 10^6 (M^–1) (PB1(5) [2]): 7.29 × 10^6 M^–1
BRD4(1) Tm (BRD4(1)): 0.3 °C
CREBBP Tm (CREBBP): 0.0 °C
PCAF Tm (PCAF): 0.2 °C
TRIM33B Tm (TRIM33B): 0.2 °C
SMILES: CN(C)/C=C1\CCn2c1nc(=O)c1c(Cl)cccc12 [Compound 18]

TΔS (PB1(5) [2]): 4.043 kcal/mol and 4.0 kcal/mol
ΔG (PB1(5) [2]): -9.243 kcal/mol
K × 10^6 (M^–1) (PB1(5) [2]): 7.86 × 10^6 M^–1
BRD4(1) Tm (BRD4(1)): 1.0 °C
CREBBP Tm (CREBBP): 0.0 °C
TRIM33B Tm (TRIM33B): -0.1 °C
DMSO and aqueous solubility (Solubility (qualitative)): greatly improved
SMILES: O=c1nc2n(c3cccc(Cl)c13)CC/C2=C\N1CCCCC1 [Compound 24]

CREBBP Tm (CREBBP): 0.1 °C
PCAF Tm (PCAF): 0.8 °C
TRIM33B Tm (TRIM33B): 0.9 °C
SMILES: O=c1nc2n(c3cccc(Cl)c13)CC/C2=C\N1CCOCC1 [Compound 25]

ΔG (PB1(5) [2]): -9.272 kcal/mol
K × 10^6 (M^–1) (PB1(5) [2]): 8.09 × 10^6 M^–1
K×10^6 (M-1) (SMARCA2B): 3.81 ×10^6 M-1
TΔS (SMARCA2B): 5.508 kcal/mol
ΔG (SMARCA2B): -8.810 kcal/mol
ΔH (SMARCA2B): -3.302 kcal/mol
K×10^6 (M-1) (SMARCA4): 2.40 ×10^6 M-1
TΔS (SMARCA4): 4.835 kcal/mol
ΔG (SMARCA4): -4.838 kcal/mol
ΔH (SMARCA4): -3.727 kcal/mol
DMSO and aqueous solubility (Solubility (qualitative)): greatly improved
SMILES: CN1CCN(/C=C2\CCn3c2nc(=O)c2c(Cl)cccc23)CC1 [Compound 26]

TΔS (PB1(5) [2]): 4.7 kcal/mol
ΔG (PB1(5) [2]): -9.198 kcal/mol
K × 10^6 (M^–1) (PB1(5) [2]): 7.05 × 10^6 M^–1
DMSO and aqueous solubility (Solubility (qualitative)): greatly improved
SMILES: CCN1CCN(/C=C2\CCn3c2nc(=O)c2c(Cl)cccc23)CC1 [Compound 27]

TΔS (PB1(5) [2]): 2.362 kcal/mol and 2.3 kcal/mol
ΔG (PB1(5) [2]): -9.110 kcal/mol
K×10^6 (M-1) (SMARCA4): 0.49 ×10^6 M-1
TΔS (SMARCA4): 6.446 kcal/mol
ΔG (SMARCA4): -7.620 kcal/mol
ΔH (SMARCA4): -1.174 kcal/mol
SMILES: CCC(/C=C1\CCn2c1nc(=O)c1c(Cl)cccc12)CC [Compound 28]
